Tests used:
RUP3 = biological target: T1, RUP3 (Homo sapiens, UniProt Q8TDV5); test: RUP3 dose responses in melanophores; assay type: cell-based; conditions: melanophores transfected with RUP3 expression vector
T1 construct: read from the listing, own knowledge; expressed in transfected cells; host or cells: melanophores, electroporated with the RUP3 expression vector (pCMV)
T1 sequence (Q8TDV5 with tags, fused parts or gaps): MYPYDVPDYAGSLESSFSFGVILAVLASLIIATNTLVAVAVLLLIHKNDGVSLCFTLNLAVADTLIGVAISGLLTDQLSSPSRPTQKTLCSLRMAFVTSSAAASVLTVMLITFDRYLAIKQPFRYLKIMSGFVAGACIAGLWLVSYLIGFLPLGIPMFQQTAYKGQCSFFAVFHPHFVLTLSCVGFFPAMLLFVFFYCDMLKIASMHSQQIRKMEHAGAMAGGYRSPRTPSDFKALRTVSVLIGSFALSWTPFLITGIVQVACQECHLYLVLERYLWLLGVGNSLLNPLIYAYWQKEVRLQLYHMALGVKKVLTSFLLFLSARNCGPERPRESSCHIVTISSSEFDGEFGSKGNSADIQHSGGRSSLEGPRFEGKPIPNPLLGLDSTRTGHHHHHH
Method: Protocol for RUP3 Dose Responses in Melanophores
Melanophores are maintained in culture as reported by Potenza, M. N. and Lerner, M. R., in Pigment Cell Research, Vol. 5, 372-378, 1992 and transfected with the RUP3 expression vector (pCMV) using electroporation. Following electroporation, the transfected cells are plated into 96 well plates for the assay. The cells are then allowed to grow for 48 hours in order to both recover from the electroporation procedure and attain maximal receptor expression levels.
On the assay day, the growth medium on the cells is replaced with serum-free buffer containing 10 nM melatonin. The melatonin acts via an endogenous Gi-coupled GPCR in the melanophores to lower intracellular cAMP levels. In response to lowered cAMP levels, the melanophores translocate their pigment to the center of the cell. The net effect of this is a significant decrease in the absorbance reading of the cell monolayer in the well, measured at […].
After a 1-hour incubation in melatonin, the cells become completely pigment-aggregated. At this point a baseline absorbance reading is collected. Serial dilutions of test compounds are then added to the plate and compounds that stimulate RUP3 produce increases in intracellular cAMP levels. In response to these increased cAMP levels, the melanophores translocate their pigment back into the cell periphery. After one hour, stimulated cells are fully pigment-dispersed. The cell monolayer in the dispersed state absorbs much more light in the 600-650 nm range. The measured increase in absorbance compared to the baseline reading allows one to quantitate the degree of receptor stimulation and plot a dose-response curve.
The compounds in the above examples were screened using the melanophore assay.

Male Sprague Dawley rats = test: Oral glucose tolerance test (oGTT) in rats; assay type: in vivo; conditions: rat, p.o.; for Mean % inhibition of glucose excursion: dextrose 2 g/kg, mean of six animals; for Effect on blood glucose after challenge with glucose: result in words
Method: In Vivo Effects of RUP3 Agonists on Glucose Homeostasis in Rats
A. Oral Glucose Tolerance Test (oGTT)
Male Sprague Dawley rats weighing approximately 200 g-250 g were fasted for 15 hours and randomly grouped (n=6) to receive a RUP3 agonist (Compounds A194, A214 or D4) at 3, 10 or 30 mg/kg. Compounds were delivered orally via a gavage needle (p.o., volume 3 mL/kg). At time 0, levels of blood glucose were assessed using a glucometer (Elite XL, Bayer), and rats were administered either vehicle (20% hydroxypropyl-beta-cyclodextrin) or test compound. Thirty minutes after administration of test compound, levels of blood glucose were again assessed, and rats were administered dextrose orally at a dose of 2 g/kg. Blood glucose measurements were then taken 30 min, 60 min, and 120 min after this time.

| Compound | EC50 (RUP3) [nM] | Mean % inhibition of glucose excursion (Male Sprague Dawley rats; dose 30 mg/kg) | Effect on blood glucose after challenge with glucose (Male Sprague Dawley rats) | Mean % inhibition of glucose excursion (Male Sprague Dawley rats; dose 10 mg/kg) |
| --- | --- | --- | --- | --- |
| CC(C)OC(=O)N1CCC(Oc2ncnc3c2cnn3-c2ccc(S(C)(=O)=O)cc2)CC1 [Compound A5, 4-[1-(4-Methanesulfonyl-phenyl)-1H-pyrazolo[3,4-d]pyrimidin-4-yloxy]-piperidine-1-carboxylic acid isopropyl ester] | 12.7 | – | – | – |
| CC(C)Oc1ccc(C(=O)N2CCC(Oc3ncnc4c3cnn4-c3ccc(S(C)(=O)=O)cc3F)CC2)nc1 [Compound A194, {4-[1-(2-Fluoro-4-methanesulfonyl-phenyl)-1H-pyrazolo[3,4-d]pyrimidin-4-yloxy]-piperidin-1-yl}-(5-isopropoxy-pyridin-2-yl)-methanone] | – | 15%, (30) | lowered blood glucose after challenge with glucose | – |
| CC(C)OC(=O)N1CCC(Sc2ncnc3c2cnn3-c2ccc(S(C)(=O)=O)cc2F)CC1 [Compound A214, 4-[-(2-Fluoro-4-methanesulfonyl-phenyl)-1H-pyrazolo[3,4-d]-pyrimidin-4-ylsulfanyl]-piperidine-1-carboxylic acid isopropyl ester] | – | – | lowered blood glucose after challenge with glucose | 33%, (10) |
| CC(C)(C)OC(=O)N1CCC(Oc2ncnc3c2ncn3-c2ccc(S(C)(=O)=O)nc2)CC1 [Compound B5, 4-[9-(6-Methanesulfonyl-pyridin-3-yl)-9H-purin-6-yloxy]-piperidine-1-carboxylic acid tert-butyl ester] | 59.1 | – | – | – |
| CC(C)(C)OC(=O)N1CCC(Oc2ncnc3c2nnn3-c2ccc(S(C)(=O)=O)cc2)CC1 [Compound C1, 4-[3-(4-Methanesulfonyl-phenyl)-3H-[1,2,3]triazolo[4,5-d]pyrimidin-7-yloxy]-piperidine-1-carboxylic acid tert-butyl ester] | 13 | – | – | – |
| CC(C)OC(=O)N1CCC(Oc2ncnc3c(-c4ccc(S(C)(=O)=O)cc4)noc23)CC1 [Compound D4, 4-[3-(4-methanesulfonyl-phenyl)-isoxazolo[4,5-d]pyrimidin-7-yloxy]-piperidine-1-carboxylic acid isopropyl ester] | – | 12%, (30) | lowered blood glucose after challenge with glucose | – |
